Experiment in all cases: growth of human tumour cells (NCI), 48 h
Assay [1] relates to 786-0.
Assay [2] relates to CCRF-CEM.
Assay [3] deals with DU-145.
For assay [4], the system named is EKVX.
Assay [5] concerns HOP-92.
For assay [6], the system named is KM12.
In assay [7] the test system is MCF7.
In assay [8] the test system is MDA-MB-435.
In assay [9] the test system is NCI-H460.
Assay [10] has as its system NCI/ADR-RES.
Assay [11] has as its system OVCAR-3.
For assay [12], the system named is OVCAR-8.
The test system of assay [13] is RXF 393.
Assay [14] concerns SF-268.
In assay [15] the test system is SF-295.
Assay [16] concerns SK-MEL-28.
In assay [17] the test system is SK-MEL-5.
Assay [18] has as its system SN12C.
The subject of assay [19] is T47D.
Assay [20] relates to UO-31.

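Five concentrations, 48 hours, 96-well plates. Abbreviation: GI50, concentration required for 50% inhibition of growth.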 Activity calls are given as the source filed them. No stated cut-off is given here; in the data, active = GI50 up to about 1.1 µM and inactive = higher.

Take `CCOC(=O)/C=C(\C(=O)OCC)n1cc(C)c(=O)n(Cc2cnnn2CCCCOC(C)=O)c1=O`: the GI50 is 2.96 µM (inactive) in assay [1]; 0.661 µM (active) in assay [2]; > 41.7 µM (inactive) in assay [3]; 11.3 µM (inactive) in [4]; 2.1 µM (inactive) in assay [5]; 16.7 µM (inactive) in [6]. For the same compound, the GI50 in assay [7] is 4.78 µM (inactive); in assay [8], 7.69 µM (inactive); in assay [9], 12.4 µM (inactive); in assay [10], 8.79 µM (inactive); in [11] it was 13.3 µM (inactive); in [12], 3.37 µM (inactive). Also, the GI50 is 2.7 µM (inactive) in assay [13]; 15.7 µM (inactive) in assay [14]; 32.1 µM (inactive) in [15]; 7.35 µM (inactive) in [16]; 17.1 µM (inactive) in [17]; 12.1 µM (inactive) in assay [18]. Besides, the GI50 in assay [19] was 21.7 µM (inactive); in [20], 15 µM (inactive).
`CC(C)(C)c1cc2c(O)c(c1)Cc1cc(C(C#N)(Cc3ccc4ccccc4c3)Cc3ccc4ccccc4c3)cc(c1O)Cc1cc(C(C)(C)C)cc(c1O)Cc1cc(C(C#N)(Cc3ccc4ccccc4c3)Cc3ccc4ccccc4c3)cc(c1O)C2`: the GI50 in assay [1], in assay [2], in assay [3], in assay [4], in assay [5] and in assay [6] was > 100 µM (inactive) each time. The GI50 in assay [7], in assay [8], in assay [9], in assay [10], in [11] and in assay [12] was > 100 µM (inactive) each time. The GI50 in assay [13], in assay [14], in assay [15], in assay [16], in assay [17] and in assay [18] was > 100 µM (inactive) throughout. In addition, the GI50 in [19] and in [20] was > 100 µM (inactive) in each case.
Take `CN(C)c1ccc2c3c(c(=O)oc2c1)CCC3`: the GI50 in assay [1] is 58.6 µM (inactive); in [2], 75 µM (inactive); in assay [3], 80.4 µM (inactive); in [4] it was 9.14 µM (inactive); in assay [5], 38.7 µM (inactive); in assay [6] it was 41.7 µM (inactive). In addition, the GI50 in assay [7] was 28.2 µM (inactive); in assay [8], 57.9 µM (inactive); in [9], 83.9 µM (inactive); in assay [10], 65.8 µM (inactive); in assay [11], > 100 µM (inactive); in assay [12], 64.4 µM (inactive). In addition, the GI50 is 64 µM (inactive) in assay [13]; 34.8 µM (inactive) in assay [14]; 92.7 µM (inactive) in assay [15]; > 100 µM (inactive) in assay [16]; 36.8 µM (inactive) in [17]; > 100 µM (inactive) in assay [18]. The values for the GI50 in assay [19] and in assay [20] were 36.1 µM (inactive) and > 100 µM (inactive), respectively.
As for `O=c1c2ccccc2[nH]c(=S)n1-c1ccc(/N=N/c2cccc3cc(O)ccc23)cc1`, the GI50 in [1] was 65.5 µM (inactive); in assay [2], > 100 µM (inactive); in assay [3], > 100 µM (inactive); in assay [4] it was > 100 µM (inactive); in assay [5] it was > 100 µM (inactive); in [6], > 100 µM (inactive). In addition, the GI50 is 27 µM (inactive) in [7]; > 100 µM (inactive) in assay [8]; > 100 µM (inactive) in assay [9]; > 100 µM (inactive) in assay [10]; > 100 µM (inactive) in [11]; > 100 µM (inactive) in assay [12]. Further, the GI50 in [13] was > 100 µM (inactive); in assay [14], > 100 µM (inactive); in assay [15] it was > 100 µM (inactive); in assay [16], > 100 µM (inactive); in assay [17], 31.8 µM (inactive); in [18] it was > 100 µM (inactive). Also, the GI50 in assay [19] and in [20] was > 100 µM (inactive) in each case.
Consider `CC(=O)Oc1ccc2c(c1)CC[C@@H]1C2[C@@H](O[N+](=O)[O-])C[C@@]2(C)C1CC[C@@H]2O` (stereo not given in full), for which the GI50 in assay [1] is 33.8 µM (inactive); in assay [2], 22.1 µM (inactive); in [3] it was 28.7 µM (inactive); in assay [4], 16.8 µM (inactive); in assay [5], > 88.1 µM (inactive); in assay [6], 29.9 µM (inactive). Moreover, the GI50 in [7] is 41 µM (inactive); in [8], 7.31 µM (inactive); in [9], 35.3 µM (inactive); in assay [10] it was 26.9 µM (inactive); in [11] it was 35.1 µM (inactive); in assay [12], 31.3 µM (inactive). The GI50 in assay [13] is 38.7 µM (inactive); in assay [14] it was 32.6 µM (inactive); in assay [15] it was 35.5 µM (inactive); in assay [16] it was 48.9 µM (inactive); in assay [17], 24.7 µM (inactive); in assay [18] it was 34.5 µM (inactive). The GI50 in assay [19] is 47.4 µM (inactive); in assay [20] it was 43.9 µM (inactive).
For the compound `N#Cc1ccc(-c2nc3c(N)nc(-c4ccccc4)nc3o2)cc1`, the GI50 was > 100 µM (inactive) in [1]; > 10 µM (inactive) in [2]; 84.1 µM (inactive) in assay [3]; > 100 µM (inactive) in [4]; 31.5 µM (inactive) in assay [5]; > 100 µM (inactive) in assay [6]. Also, the GI50 was > 100 µM (inactive) in assay [7]; > 100 µM (inactive) in assay [8]; > 100 µM (inactive) in assay [9]; 40.3 µM (inactive) in assay [10]; 61.4 µM (inactive) in assay [11]; 12.9 µM (inactive) in [12]. The GI50 was 23.8 µM (inactive) in assay [13]; > 100 µM (inactive) in [14]; 51.1 µM (inactive) in assay [15]; > 100 µM (inactive) in [16]; > 100 µM (inactive) in [17]; > 100 µM (inactive) in assay [18]. Further, the GI50 in assay [19] and in assay [20] was > 100 µM (inactive) each time.
Turning to `Cc1c2cc[n+](C)cc2c(C)c2c1[nH]c1ccc(Cl)cc12`, the GI50 in assay [1] was 0.232 µM (active); in assay [2] it was 0.802 µM (active); in assay [3] it was 2.3 µM (inactive); in assay [4], 0.536 µM (active); in assay [5], 2.96 µM (inactive); in assay [6], 0.897 µM (active). The GI50 in assay [7] is 2.59 µM (inactive); in assay [8], 5.98 µM (inactive); in [9], 4.81 µM (inactive); in assay [10], 2.96 µM (inactive); in [11], 2.07 µM (inactive); in assay [12], 0.298 µM (active). The GI50 in [13] was 1.18 µM (inactive); in assay [14] it was 0.29 µM (active); in [15] it was 0.374 µM (active); in [16] it was 2.92 µM (inactive); in assay [17] it was 1.09 µM (active); in assay [18], 0.214 µM (active). Further, the GI50 is 1.09 µM (active) in assay [19] and 1.51 µM (inactive) in assay [20].
On to `O=C(O)C1CC2C3CCC2C1C3=O` (stereo not given), for which the GI50 in [1], in [2], in assay [3], in assay [4], in [5] and in assay [6] was > 100 µM (inactive) in each case. Further, the GI50 in assay [7], in [8], in assay [9], in assay [10], in [11] and in assay [12] was > 100 µM (inactive) each time. Also, the GI50 in assay [13], in assay [14], in assay [15], in assay [16], in assay [17] and in [18] was > 100 µM (inactive) in each case. In addition, the GI50 in assay [19] and in assay [20] was > 100 µM (inactive) in each case.
For the compound `O=C1NC(=O)/C(=C/c2ccc(S(=O)(=O)N/N=C\C(O)C(O)C(O)C(O)CO)cc2)N1` (stereo not given), the GI50 in assay [1], in [2], in assay [3], in [4], in [5] and in assay [6] was > 100 µM (inactive) each time. Moreover, the GI50 in assay [7], in assay [8], in assay [9], in [10], in assay [11] and in [12] was > 100 µM (inactive) throughout. In addition, the GI50 in assay [13], in assay [14], in assay [15], in [16], in assay [17] and in [18] was > 100 µM (inactive) throughout. For the same compound, the GI50 in assay [19] and in [20] was > 100 µM (inactive) in each case.
Consider `CC(C)C1=CC(=O)[C@@](C)(C2[C@H](O)C[C@@]3(C)[C@@H]4CC=C5[C@@H](CC[C@@H](OC6OCC(O)C(O)C6OC6OC(C)C(O)C(O)C6O)C5(C)C)[C@]4(C)C(=O)C[C@]23C)O1` (stereo not given in full), for which the GI50 in assay [1], in assay [2], in assay [3], in [4], in assay [5] and in assay [6] was > 100 µM (inactive) in each case. For the same compound, the GI50 in assay [7], in assay [8], in assay [9], in assay [10], in assay [11] and in assay [12] was > 100 µM (inactive) each time. Also, the GI50 in [13] is > 100 µM (inactive); in [14] it was > 100 µM (inactive); in assay [15], 59 µM (inactive); in [16], > 100 µM (inactive); in assay [17] it was > 100 µM (inactive); in [18], > 100 µM (inactive). Moreover, the GI50 in [19] and in [20] was > 100 µM (inactive) each time.

(Values after ChEMBL document CHEMBL1201862, “PubChem BioAssay data set” (2004).)
